pIC50: −log10 of the molar value. Calls of active or inactive are those of the source. No cut-off for these calls is given here.
Key:
Type in all cases: functional, cell-based
RAW264.7 [1] = experiment: Antiinflammatory activity against mouse RAW264.7 cells assessed as inhibition of LPS-induced NO production preincubated for 1 hr followed by LPS addition measured after 24 hrs by Griess method
[2] = Antiinflammatory activity against mouse BV2 cells assessed as inhibition of LPS-induced NO production preincubated for 1 hr followed by LPS addition measured after 24 hrs by Griess method; conditions: BV-2
BV-2 [3] = experiment: Antiinflammatory activity against mouse BV2 cells assessed as effect on PGE2 level at 5 to 10 uM after 24 hrs by ELISA relative to control
RAW264.7 [4] = experiment: Antiinflammatory activity against mouse RAW264.7 cells assessed as effect on PGE2 level at 5 to 10 uM after 24 hrs by ELISA relative to control
RAW264.7 [5] = experiment: Antiinflammatory activity against mouse RAW264.7 cells assessed as inhibition of LPS-induced PGE2 production at 5 to 10 uM preincubated for 1 hr followed by LPS addition measured after 24 hrs by ELISA
BV-2 [6] = experiment: Antiinflammatory activity against mouse BV2 cells assessed as inhibition of LPS-induced PGE2 production at 5 to 10 uM preincubated for 1 hr followed by LPS addition measured after 24 hrs by ELISA

| pIC50 (RAW264.7 [1]) | pIC50 [2] | SMILES | Activity (BV-2 [3]) | Activity (RAW264.7 [4]) | inhibition (RAW264.7 [5]) | inhibition (RAW264.7 [1]) | inhibition (BV-2 [6]) |
| --- | --- | --- | --- | --- | --- | --- | --- |
| 5.41 | 4.63 | C=C/C=C/C/C(I)=C\CC#CC/C=C\C/C(I)=C\CCCC(=O)OC | inactive | inactive | Active |  |  |
|  | 5.74 | CCCCC/C=C\CC#CC/C=C\C/C(I)=C\CCCC(=O)OC | inactive | inactive |  | inactive | Active |
| 5.15 | 4.74 | C/C=C/CC/C(I)=C\CC#CC/C=C\C/C(I)=C\CCCC(=O)OC | inactive | inactive | Active |  |  |
| 4.27 | 5.51 | C=CCCC/C=C\CC#CC/C=C\C/C(I)=C\CCCC(=O)OC | inactive | inactive |  |  | Active |

Source: ChEMBL document CHEMBL3091312, “Characterization and anti-inflammatory effects of iodinated acetylenic acids isolated from the marine sponges Suberites mammilaris and Suberites japonicus” (J Nat Prod, 2013)
